Structures can show the parent of a compound that is named as a salt.
Biological target: hATX/ENPP2 (Homo sapiens, UniProt Q13822)
Assay: hATX/ENPP2 biochemical assay using 16:0-LPC as substrate (Amplex Red/choline oxidase/HRP fluorescence)
Conditions: hENPP2 2.5 nM, LPC (16:0) substrate
Procedure: The enzyme is diluted in 50 mM Tris-HCl pH 8.0, 140 mM NaCl, 5 mM CaCl2, 0.01% Triton X-100 in a total volume of 5 μL. The aqueous solution of enzyme is added to the wells and incubated with different concentrations of the compounds at room temperature for 15 min. The reaction is started by the addition of 5 μL of 80 μM LPC (16:0) and 10 μL of the detection mixture containing 200 μM Amplex Red, 10 U/mL choline oxidase and 4 U/mL HRP. Fluorescence at 590 nm was measured kinetically with excitation at 530 nm. The slope of the curve (from 60 to 70 min of the reaction time) was used to calculate the compounds' IC50 values.

| SMILES | IC50 [nM] |
| --- | --- |
| CCc1nc2ccc(-c3cnc(NCC4CNC4)nc3)cn2c1N(C)c1nc(-c2ccc(F)cc2)c(C#N)s1 [38 (formate salt), 2-((6-(2-((azetidin-3-ylmethyl)amino)pyrimidin-5-yl)-2-ethylimidazo[1,2-a]pyridin-3-yl)(methyl)amino)-4-(4-fluorophenyl)thiazole-5-carbonitrile formate] | > 200 |
| CCc1nc2ccc(-c3cnc(N4CCN(C(=O)NC5CNC5)CC4)nc3)cn2c1N(C)c1nc(-c2ccc(F)cc2)c(C#N)s1 [66 (hydrochloride salt), N-(azetidin-3-yl)-4-(5-(3-((5-cyano-4-(4-fluorophenyl)thiazol-2-yl)(methyl)amino)-2-ethylimidazo[1,2-a]pyridin-6-yl)pyrimidin-2-yl)piperazine-1-carboxamide hydrochloride] | ≤ 20 |
| CCc1nc2ccc(-c3cnc(N4CC(C(=O)NC5CNC5)C4)nc3)cn2c1N(C)c1nc(-c2ccc(F)cc2)c(C#N)s1 [70 (hydrochloride salt), N-(azetidin-3-yl)-1-(5-(3-((5-cyano-4-(4-fluorophenyl)thiazol-2-yl)(methyl)amino)-2-ethylimidazo[1,2-a]pyridin-6-yl)pyrimidin-2-vl) azetidine-3-carboxamide hydrochloride] | 20 to 200 |
| CCc1nc2ccc(-c3cnc(N4CC(C(=O)NC5CCNCC5)C4)nc3)cn2c1N(C)c1nc(-c2ccc(F)cc2)c(C#N)s1 [71 (hydrochloride salt), 1-(5-(3-((5-cyano-4-(4-fluorophenyl)thiazol-2-yl)(methyl)amino)-2-ethylimidazo[1,2-a]pyridin-6-yl)pyrimidin-2-yl)-N-(piperidin-4-yl) azetidine-3-carboxamide hydrochloride] | 20 to 200 |
| CCc1nc2ccc(-c3cnc(N4CC(NC5CN(C)C5)C4)nc3)cn2c1N(C)c1nc(-c2ccc(F)cc2)c(C#N)s1 [80 (hydrochloride salt), 2-((2-ethyl-6-(2-(3-((I-methylazetidin-3-yl)amino)azetidin-1-yl)pyrimidin-5-yl)imidazo[1,2-a]pyridin-3-yl)(methyl)amino)-4-(4-fluorophenyl)thiazole-5-carbonitrile hydrochloride] | 20 to 200 |
| CCc1nc2ccc(-c3cnc(N4CC(NC(=O)[C@@H]5C[C@@H](O)CN5C)C4)nc3)cn2c1N(C)c1nc(-c2ccc(F)cc2)c(C#N)s1 [81 (hydrochloride salt), (2S,4R)—N-(1-(5-(3-((5-cyano-4-(4-fluorophenyl)thiazol-2-yl)(methyl)amino)-2-ethylimidazo[1,2-a]pyridin-6-yl)pyrimidin-2-yl)azetidin-3-yl)-4-hydroxy-1-methyl pyrrolidine-2-carboxamide hydrochloride] | 20 to 200 |
| CCc1nc2ccc(-c3cnc(N4CC(N)C4)nc3)cn2c1N(C)c1nc(-c2ccc(F)cc2)c(C#N)s1 [Compound 3, 2-((6-(2-(3-aminoazetidin-1-yl)pyrimidin-5-yl)-2-ethylimidazo[1,2-a]pyridin-3-yl)(methyl)amino)-4-(4-fluorophenyl)thiazole-5-carbonitrile] | 20 to 200 |
| CCc1nc2ccc(-c3cnc(N4CCNCC4)nc3)cn2c1N(C)c1nc(-c2ccc(F)cc2)c(C#N)s1 [Compound 4, 2-((2-ethyl-6-(2-(piperazin-1-yl)pyrimidin-5-yl)imidazo[1,2-a]pyridin-3-yl)(methyl)amino)-4-(4-fluorophenyl)thiazole-5-carbonitrile] | 20 to 200 |
| CCc1nc2ccc(-c3cnc(N4CCN(C(=O)[C@@H]5C[C@@H](O)CN5)CC4)nc3)cn2c1N(C)c1nc(-c2ccc(F)cc2)c(C#N)s1 [Compound 5, 2-((2-ethyl-6-(2-(4-((2S,4R)-4-hydroxypyrrolidine-2-carbonyl)piperazin-1-yl)pyrimidin-5-yl)imidazo[1,2-a]pyridin-3-yl)(methyl)amino)-4-(4-fluorophenyl)thiazole-5-carbonitrile] | ≤ 20 |
| CCc1nc2ccc(-c3cnc(N4CCN(C(=O)[C@H]5C[C@@H](O)CN5)CC4)nc3)cn2c1N(C)c1nc(-c2ccc(F)cc2)c(C#N)s1 [Compound 6, 2-((2-ethyl-6-(2-(4-((2R,4R)-4-hydroxypyrrolidine-2-carbonyl)piperazin-1-yl)pyrimidin-5-yl)imidazo[1,2-a]pyridin-3-yl) (methyl)amino)-4-(4-fluorophenyl)thiazole-5-carbonitrile] | ≤ 20 |
| CCc1nc2ccc(-c3cnc(N4CCN(C(=O)[C@@H]5C[C@H](O)CN5)CC4)nc3)cn2c1N(C)c1nc(-c2ccc(F)cc2)c(C#N)s1 [Compound 7, 2-((2-ethyl-6-(2-(4-((2S,4S)-4-hydroxypyrrolidine-2-carbonyl)piperazin-1-yl)pyrimidin-5-yl)imidazo[1,2-a]pyridin-3-yl)(methyl)amino)-4-(4-fluorophenyl) thiazole-5-carbonitrile] | ≤ 20 |
| CCc1nc2ccc(-c3cnc(N4CCN(C(=O)[C@H]5C[C@H](O)CN5)CC4)nc3)cn2c1N(C)c1nc(-c2ccc(F)cc2)c(C#N)s1 [Compound 8, 2-((2-ethyl-6-(2-(4-((2R,4S)-4-hydroxypyrrolidine-2-carbonyl)piperazin-1-yl)pyrimidin-5-yl)imidazo[1,2-a]pyridin-3-yl)(methyl)amino)-4-(4-fluorophenyl)thiazole-5-carbonitrile] | ≤ 20 |
| CCc1nc2ccc(-c3cnc(N4CCN(C(=O)C5CNC5)CC4)nc3)cn2c1N(C)c1nc(-c2ccc(F)cc2)c(C#N)s1 [Compound 9, 2-((6-(2-(4-(azetidine-3-carbonyl)piperazin-1-yl)pyrimidin-5-yl)-2-ethylimidazo[1,2-a]pyridin-3-yl)(methyl)amino)-4-(4-fluorophenyl)thiazole-5-carbonitrile] | ≤ 20 |
| CCc1nc2ccc(-c3cnc(C(=O)N4CC(O)C4)nc3)cn2c1N(C)c1nc(-c2ccc(F)cc2)c(C#N)s1 [Compound 11, 2-((2-ethyl-6-(2-(3-hydroxyazetidine-1-carbonyl)pyrimidin-5-yl)imidazo[1,2-a]pyridin-3-yl)(methyl)amino)-4-(4-fluorophenyl)thiazole-5-carbonitrile] | 20 to 200 |
| CCc1nc2ccc(-c3cnc(C(=O)N4CC(NC5CC5)C4)nc3)cn2c1N(C)c1nc(-c2ccc(F)cc2)c(C#N)s1 [Compound 12, 2-((6-(2-(3-(cyclopropylamino)azetidine-1-carbonyl)pyrimidin-5-yl)-2-ethylimidazo[1,2-a]pyridin-3-yl)(methyl)amino)-4-(4-fluorophenyl)thiazole-5-carbonitrile] | 20 to 200 |
| CCc1nc2ccc(-c3cnc(C(=O)N4CC(NC5CCC5)C4)nc3)cn2c1N(C)c1nc(-c2ccc(F)cc2)c(C#N)s1 [Compound 13, 2-((6-(2-(3-(cyclobutylamino)azetidine-1-carbonyl)pyrimidin-5-yl)-2-ethylimidazo[1,2-a]pyridin-3-yl)(methyl)amino)-4-(4-fluorophenyl)thiazole-5-carbonitrile] | > 200 |
| CCc1nc2ccc(-c3cnc(C(=O)N4CC(N5CCC5)C4)nc3)cn2c1N(C)c1nc(-c2ccc(F)cc2)c(C#N)s1 [Compound 14, 2-((6-(2-([1,3′-biazetidine]-1′-carbonyl)pyrimidin-5-yl)-2-ethylimidazo[1,2-a]pyridin-3-yl)(methyl)amino)-4-(4-fluorophenyl) thiazole-5-carbonitrile] | 20 to 200 |
| CCc1nc2ccc(-c3cnc(C(=O)N4CCC(O)CC4)nc3)cn2c1N(C)c1nc(-c2ccc(F)cc2)c(C#N)s1 [Compound 15, 2-((2-ethyl-6-(2-(4-hydroxypiperidine-1-carbonyl)pyrimidin-5-yl)imidazo[1,2-a]pyridin-3-yl)(methyl)amino)-4-(4-fluorophenyl)thiazole-5-carbonitrile] | 20 to 200 |
| CCc1nc2ccc(-c3cnc(C(=O)NC4(C#N)CC4)nc3)cn2c1N(C)c1nc(-c2ccc(F)cc2)c(C#N)s1 [Compound 16, 5-(3-((5-cyano-4-(4-fluorophenyl)thiazol-2-yl)(methyl)amino)-2-ethylimidazo[1,2-a]pyridin-6-yl)-N-(1-cyanocyclopropyl)pyrimidine-2-carboxamide] | 20 to 200 |
| CCc1nc2ccc(-c3cnc(N4CCC(NC5(C#N)CC5)CC4)nc3)cn2c1N(C)c1nc(-c2ccc(F)cc2)c(C#N)s1 [Compound 17, 2-((6-(2-(4-((1-cyanocyclopropyl)amino)piperidin-1-yl)pyrimidin-5-yl)-2-ethylimidazo[1,2-a]pyridin-3-yl)(methyl)amino)-4-(4-fluorophenyl)thiazole-5-carbonitrile] | 20 to 200 |
| CCc1nc2ccc(-c3cnc(N4CCC(NC5(CO)CC5)CC4)nc3)cn2c1N(C)c1nc(-c2ccc(F)cc2)c(C#N)s1 [Compound 18, 2-((2-ethyl-6-(2-(4-((1-(hydroxymethyl)cyclopropyl)amino)piperidin-1-yl)pyrimidin-5-yl)imidazo[1,2-a]pyridin-3-yl) (methyl)amino)-4-(4-fluorophenyl)thiazole-5-carbonitrile] | ≤ 20 |
| CCc1nc2ccc(-c3cnc(N4CCC(NC(=O)C5(O)CC5)CC4)nc3)cn2c1N(C)c1nc(-c2ccc(F)cc2)c(C#N)s1 [Compound 19, N-(1-(5-(3-((5-cyano-4-(4-fluorophenyl)thiazol-2-yl)(methyl)amino)-2-ethylimidazo[1,2-a]pyridin-6-yl)pyrimidin-2-yl)piperidin-4-yl)-1-hydroxycyclopropane-1-carboxamide] | ≤ 20 |
| CCc1nc2ccc(-c3cnc(N4CCC(NC(=O)C5(C#N)CC5)CC4)nc3)cn2c1N(C)c1nc(-c2ccc(F)cc2)c(C#N)s1 [Compound 20, 1-cyano-N-(1-(5-(3-((5-cyano-4-(4-fluorophenyl)thiazol-2-yl)(methyl)amino)-2-ethylimidazo[1,2-a]pyridin-6-yl)pyrimidin-2-yl)piperidin-4-yl) cyclopropane-1-carboxamide] | 20 to 200 |
